Where a name gives a salt, the structure may show the parent alone.
Assays:
[1] = system: isolated ischiadicus nerves; experiment: Local anaesthetic effect on isolated ischiadicus nerves of frogs; settings: for ED50 (dose reducing by 50% the amplitude of the action-potential): isolated ischiadicus nerves of frogs
Description: 4. Local anaesthetical effect The local anaesthetic effect being characteristic of the majority of antiarrhythmical agents is tested on isolated ischiadicus nerves of frogs. The dose reducing by 50% the amplitude of the action-potential induced by stimulation of the nerves is considered as the rate (ED50) of the local anaesthetic effect.

dogs [2] = experiment: ECG (EKG) disturbances in dogs; format: in vivo; settings: dose which exhibits a coronary dilatory effect
dogs [3] = experiment: Toxicity on dogs (own investigations); format: in vivo
rats = experiment: Acute toxicity on rats; format: in vivo; settings: own investigations
Description: (§1) Acute toxicity is measured on rats weighing 150-200 g. The test-compound is injected into the tail wein, within a period of not more, than 5 seconds in a volume of 0.2 ml/100 g. The LD50 -value and the confidentiality limits thereof are evaluated on the basis of the number of animals died within 24 hours. See (J. Pharmacol. Exper. Ther. 96, 89 (1948))

right atrium = experiment: Atrial antifibrillatory effect on cats (atrial fibrillation threshold); format: in vivo
Description: (§2) On dogs anaesthetized with Nembutal (25 mg/kg) (iv.) disturbance of the cardiac rhythm was produced by the slow intravenous infusion of 40 - 80 μg/kg of strophantine, the latter amount depending on the sensibility of the animals. After the appearance of cumulated ventricular extrasystolae the test-compounds are intravenously injected in increasing doses and the arrhythmia antagonizing effect is regarded as positive, if the rhythm disturbance reappears after the cessation of the drug effect. Atrial and ventricular antifibrillatory effect on cats
(§3) In cats anaesthetized with an urethane mixture (60/300 mg/kg i.p.) the right atrium and the right ventriculum is irritated through a dipolar silver electrode with 20 Hz rectangular electric stimuli of […]. The threshold intensity (i.e. fibrillation threshold value) just eliciting the fibrillation of the ventriculum is determined. The capacity of the compounds to elevate the fibrillation threshold when administered intravenously is tested. (British J. Pharmacol. 17, 167, 1961).

isolated right atrium = experiment: Effect on spontaneous frequency of isolated right atria of rabbits
Description: (§4) 3. effect on the electro-physiological characteristics of isolated right and left atria of rabbits
(§5) Rabbits are killed by blows on the napeon; the isolated right atrium which is surviving in a Locke-solution having a temperature of 32° C the spontane frequency and on the isolated left atrium the electric threshold, the velocity of stimulus-transmission and the maximal driving frequency is determined. (Detailed description of the test: see L. Szekeres and Gy. Papp: "Experimental cardiac arrhythmias and antiarrhythmic drugs." Publishing House of the Hungarian Academy of Sciences, Budapest, 1971). Upon the effect of the rising concentrations of the various test compounds, the increase of the electric threshold indicates the reduction of myocardial stimulability and the decrease of the maximal driving frequency indicates the prolongation of the refractory period.

right ventriculum = experiment: Ventricular antifibrillatory effect on cats (ventricular fibrillation threshold); format: in vivo
Description: as §2, §3

isolated left atrium = experiment: Effect on electro-physiological characteristics of isolated left atria of rabbits (electric threshold, velocity of stimulus-transmission, maximal driving frequency)
Description: as §4, §5

strophantine arrhythmia = experiment: Antagonism of strophantine arrhythmia on dogs; format: in vivo
Description: 1. Antagonism of strophantine arrhythmia on dogs
as §2

Acute toxicity on rats = format: in vivo; settings: rat, in vivo, iv, tail vein injection, deaths within 24 hours, confidence 95 %
Description: as §1

Row | Structure (SMILES) | ED50 (dose reducing by 50% the amplitude of the action-potential) [1] [µg/mL] | Atrial fibrillation threshold, changed value (right atrium; 2 mg/kg iv.) [mA] | Spontaneous frequency/min., changed value (isolated right atrium; 5 mg/l.) [min⁻¹] | Spontaneous frequency/min., changed value (isolated right atrium; 10 mg/l.) [min⁻¹] | Ventricular fibrillation threshold, changed value (right ventriculum; 2 mg/kg iv.) [mA] | Maximal driving frequency/min, changed value (isolated left atrium; 5 mg./l.) [min⁻¹] | Velocity of stimulus-transmission, changed value (isolated left atrium; 5 mg./l.) [m/sec] | Velocity of stimulus-transmission, deviation from basic value (isolated left atrium; 5 mg./l.) [%] | Electric stimulus threshold, changed value (isolated left atrium; 5 mg/l.) [mA] | Maximal driving frequency/min, changed value (isolated left atrium; 10 mg./l.) [min⁻¹] | Velocity of stimulus-transmission, changed value (isolated left atrium; 10 mg./l.) [m/sec] | Velocity of stimulus-transmission, deviation from basic value (isolated left atrium; 10 mg./l.) [%] | Electric stimulus threshold, changed value (isolated left atrium; 10 mg/l.) [mA] | Period of antagonising strophantine arrhythmia (strophantine arrhythmia; dose 2 mg/kg. i.v.) [s] | LD50 at 24 h (Acute toxicity on rats) [mg/kg] | Atrial fibrillation threshold, changed value (right atrium; 4 mg/kg iv.) [mA] | Atrial fibrillation threshold, changed value (right atrium; 6 mg/kg iv.) [mA] | Ventricular fibrillation threshold, changed value (right ventriculum; 4 mg/kg iv.) [mA] | Ventricular fibrillation threshold, changed value (right ventriculum; 6 mg/kg iv.) [mA] | other results
1 | COc1cc(C(=O)OCCCNCCC(c2ccccc2)c2ccccc2)cc(OC)c1OC.Cl [3-(3,3-diphenyl-propylamino)-propyl-3,4,5-trimethoxy-benzoate-hydrochloride, reference compound] |  |  |  |  |  |  |  |  |  |  |  |  |  |  |  |  |  |  |  | wash-out from isolated frog nerve ([1]; isolated frog nerve): cound not be washed out from isolated frog nerve; ECG (EKG) disturbances (dogs [2]): often caused ECG (EKG) disturbances; toxicity relative to the compounds of the Formula I, dogs (dogs [3]): significantly more toxic than the compounds of the Formula I; toxicity relative to the compounds of the Formula I, rats (rats): significantly more toxic than the compounds of the Formula I
2 | COc1cc(C(=O)OCCNC(C)c2ccccc2)cc(OC)c1OC (centres unmarked) [Compound 1, N-2-ethyl-1-phenyl-ethylamino-3,4,5,-trimethoxy-benzoate-hydrochloride] | 710 | 1.02 | 121 | 115 | 0.97 | 267 | 0.34 | -15 | 0.32 | 280 | 0.43 | -17 | 0.21 | 213 | 28 |  |  |  |  | Period of antagonising strophantine arrhythmia (strophantine arrhythmia; dose 4 mg/kg. i.v.): 260 s
3 | COc1cc(C(=O)OCCNC(C)C)cc(OC)c1OC [Compound 2] | 570 | 0.66 | 134 | 120 | 0.82 | 334 | 0.32 | -18 | 0.39 | 251 | 0.32 | -27 | 0.62 | 287 | 57 | 0.90 | 0.89 | 0.99 | 1.46 | Period of antagonising strophantine arrhythmia (strophantine arrhythmia; dose 0,5 mg/kg. i.v.): 145 s; Period of antagonising strophantine arrhythmia (strophantine arrhythmia; dose 1 mg/kg. i.v.): 228 s
4 | COc1cc(C(=O)OCCNC2CCCCC2)cc(OC)c1OC [Compound 3, N-2-ethyl-cyclohexylamino-3,4,5-trimethoxy-benzoate-hydrochloride] | 450 | 0.95 | 136 | 120 | 1.02 | 264 | 0.34 | -40 | 0.31 | 226 | 0.20 | -54 | 1.71 |  | 29 | 1.02 | 1.18 | 1.19 | 1.68 | Spontaneous frequency/min., changed value (isolated right atrium; 1 mg/l.): 116 min⁻¹; Ventricular fibrillation threshold, deviation from basic value (right ventriculum; 6 mg/kg iv.): +121%; Maximal driving frequency/min, changed value (isolated left atrium; 1 mg./l.): 352 min⁻¹; Velocity of stimulus-transmission, changed value (isolated left atrium; 1 mg./l.): 0.49 m/sec; Electric stimulus threshold, changed value (isolated left atrium; 1 mg/l.): 0.26 mA; Electric stimulus threshold, deviation from basic value (isolated left atrium; 10 mg/l., in %): +217 /3/
